Data from patent US4296107A, “Mildiomycin analogs and a method of production” (Takeda Chemical Industries, Ltd., priority 1979, dated 1981).
Converted amounts (≈) assume the structure as drawn. Read-outs that look alike come from different tables or passages of the source.

How the values were obtained:
[1] = system: Rhodotorula rubra IFO 0870; test: Antimicrobial spectrum, agar dilution method (in vitro); type: cell-based; settings: IFO0870, medium A, 28 °C, 40 hr, read-out: Minimal inhibitory concentration
[2] = system: Mycobacterium phlei IFO 3158; test: as above; type: cell-based; settings: Mycolicibacterium phlei, IFO3158; medium C, 37 °C, 40 hr; read-out: Minimal inhibitory concentration
From the text: (§1) C 3.0% of glycerin, 0.5% of Ehrlich's meat extract, 0.5% of NaCl, 1.5% of […]

[3] = system: Mycobacterium smegmatis ATCC 607; test: as above; type: cell-based; settings: Mycolicibacterium smegmatis, ATCC607; medium C, 37 °C, 40 hr; read-out: Minimal inhibitory concentration
From the text: as §1

Solubilities = type: physicochemical; settings: free base
[4] = system: fungi of late blight of tomato; type: in vivo; settings: tomato plants in pots, 4 days, nontreated group taken as 100%
[5] = system: Sclerotinia sclerotiorum IFO 9395; test: Antimicrobial spectrum, agar dilution method (in vitro); type: cell-based; settings: IFO9395, medium A, 28 °C, 40 hr, read-out: Minimal inhibitory concentration
[6] = system: Saccharomyces cerevisiae IFO 0209; test: as above; type: cell-based; settings: IFO0209, medium A, 28 °C, 40 hr, read-out: Minimal inhibitory concentration
[7] = system: Proteus vulgaris IFO 3045; test: as above; type: cell-based; settings: IFO3045, medium B, 37 °C, 20 hr, read-out: Minimal inhibitory concentration
From the text: (§2) B 0.5% of Ehrlich's meat extract, 0.5% of polypeptone, 0.5% of NaCl, 1.5%

[8] = system: Bacillus subtilis IFO 3513; test: as above; type: cell-based; settings: IFO3513, medium B, 37 °C, 20 hr, read-out: Minimal inhibitory concentration
From the text: as §2

[9] = system: Escherichia coli IFO 12734; test: as above; type: cell-based; settings: IFO12734, medium B, 37 °C, 20 hr, read-out: Minimal inhibitory concentration
From the text: as §2

[10] = system: Penicillium chrysogenum IFO 4626; test: as above; type: cell-based; settings: IFO4626, medium A, 28 °C, 40 hr, read-out: Minimal inhibitory concentration
[11] = system: Guignardia laricina IFO 7886; test: as above; type: cell-based; settings: Neofusicoccum laricinum, IFO7886; medium A, 28 °C, 88 hr; read-out: Minimal inhibitory concentration
in vivo = settings: mouse
Totranychus urticae = test: Miticidal effect on kidney bean seedlings; type: in vivo; settings: 500 ppm, 28 °C, 20 ml per pot
Experimental: The test on the miticidal effect was carried out. The seedlings (5 days after germination) of kidney bean grown in pots (9 cm in diameter) were inoculated on their main leaves with about 50 female adults of Totranychus urticae, and the test chemical solution was sprayed in 20 ml quantities per pot by means of a spray gun. After spraying, the pots were placed in a phytotron (28° C.), and a number of surving mites on leaves was investigated at the 5th and 7th day to determine a decrease rate against a number of mites immediately before spraying [=(number of mites tested-number of surving mites)/(number of mites tested)×100].

[12] = system: Cochlioborus miyabeanus IFO 5277; test: Antimicrobial spectrum, agar dilution method (in vitro); settings: 40 h, read-out: Minimal inhibitory concentration
powdery mildew of barley = test: Controlling effect against powdery mildew of barley (method of Iwasa et al.); type: in vivo; settings: in words
From the text: The controlling effect against powdery mildew of barley was investigated according to the method of Iwasa, et. al. (The Journal of Antibiotics, vol. 31, No. 6, pp. 512, 1978).

some bacteria = test: Antimicrobial spectrum, agar dilution method (in vitro), summary in words; type: cell-based

SMILES | MIC [1] [µg/mL] | MIC [2] [µg/mL] | MIC [3] [µg/mL] | solubility in organic solvents (Solubilities) | solubility in water (Solubilities) | Percent area of lesions ([4]; 150 ppm) [%] | Percent area of lesions ([4]; 200 ppm) [%] | Percent area of lesions ([4]; 250 ppm) [%] | Percent area of lesions ([4]; 300 ppm) [%] | Percent area of lesions ([4]; 500 ppm) [%] | MIC [5] [µg/mL] | MIC [6] [µg/mL] | MIC [7] [µg/mL] | MIC [8] [µg/mL] | MIC [9] [µg/mL] | MIC [10] [µg/mL] | MIC [11] [µg/mL] | LD50 (in vivo; ip) [mg/kg] | LD50 (in vivo; iv) [mg/kg] | LD50 (in vivo; sc) [mg/kg] | other results
N=C(N)NCC(O)CC(O)(C(=O)O)C1OC(n2ccc(N)nc2=O)C=CC1NC(=O)C(N)CO (stereo not shown) [Example 2] | < 10 | 50 (≈ 103 µM) | 100 (≈ 206 µM) | less soluble | Easily soluble | 55 | 0 | 0 | 0 | 0 | 250 (≈ 516 µM) | 100 (≈ 206 µM) | > 500 | 250 (≈ 516 µM) | 250 (≈ 516 µM) | 250 (≈ 516 µM) | 250 (≈ 516 µM) | > 200 | > 100 | > 200 | Decrease rate against number of mites immediately before spraying, 5th day (Totranychus urticae): 100; Decrease rate against number of mites immediately before spraying, 7th day (Totranychus urticae): 100; MIC [12]: 100 µg/mL (≈ 206 µM); controlling effect against powdery mildew of barley (powdery mildew of barley): greatly effective
N=C(N)NCC(O)CC(O)(C(=O)O)C1OC(n2cc(Br)c(N)nc2=O)C=CC1NC(=O)C(N)CO (stereo not shown) [Example 5] | < 10 | 25 (≈ 44.4 µM) | 25 (≈ 44.4 µM) | less soluble | Easily soluble | 100 | 11 | 0 | 0 | 0 | 500 (≈ 888 µM) | 100 (≈ 178 µM) | 250 (≈ 444 µM) | 250 (≈ 444 µM) | 100 (≈ 178 µM) | 250 (≈ 444 µM) | 250 (≈ 444 µM) | > 200 | > 100 | > 200 | antimicrobial activity against some bacteria (some bacteria): remarkably strong antimicrobial activity; Decrease rate against number of mites immediately before spraying, 5th day (Totranychus urticae): 100; Decrease rate against number of mites immediately before spraying, 7th day (Totranychus urticae): 100; MIC [12]: 100 µg/mL (≈ 178 µM); controlling effect against powdery mildew of barley (powdery mildew of barley): greatly effective
Cc1cn(C2C=CC(NC(=O)C(N)CO)C(C(O)(CC(O)CNC(=N)N)C(=O)O)O2)c(=O)nc1N (stereo not shown) [Example 6] | < 10 | 50 (≈ 100 µM) | 100 (≈ 201 µM) | less soluble | Easily soluble | 100 | 17 | 0 | 0 | 0 | 250 (≈ 502 µM) | 100 (≈ 201 µM) | > 500 | 250 (≈ 502 µM) | 250 (≈ 502 µM) | 250 (≈ 502 µM) | 250 (≈ 502 µM) | > 200 | > 100 | > 200 | Decrease rate against number of mites immediately before spraying, 5th day (Totranychus urticae): 100; Decrease rate against number of mites immediately before spraying, 7th day (Totranychus urticae): 100; MIC [12]: 100 µg/mL (≈ 201 µM); controlling effect against powdery mildew of barley (powdery mildew of barley): greatly effective
N=C(N)NCC(O)CC(O)(C(=O)O)C1OC(n2cc(F)c(N)nc2=O)C=CC1NC(=O)C(N)CO (stereo not shown) [Example 7] | < 10 | 25 (≈ 49.8 µM) | 100 (≈ 199 µM) | less soluble | Easily soluble | 100 | 16 | 0 | 0 | 0 | 250 (≈ 498 µM) | 100 (≈ 199 µM) | > 500 | 250 (≈ 498 µM) | 250 (≈ 498 µM) | 250 (≈ 498 µM) | 250 (≈ 498 µM) | > 200 | > 100 | > 200 | Decrease rate against number of mites immediately before spraying, 5th day (Totranychus urticae): 100; Decrease rate against number of mites immediately before spraying, 7th day (Totranychus urticae): 100; MIC [12]: 100 µg/mL (≈ 199 µM); controlling effect against powdery mildew of barley (powdery mildew of barley): greatly effective
